≈ marks a conversion by molar mass, not a printed value.
Columns and labels:
[1] = tested on: vancomycin-resistant enterococci (VRE); test: MIC, broth micro-dilution (CLSI); assay type: cell-based, enterococci (porcine isolates); conditions: for MIC50 / MIC90 / MIC: Enterococcus, VRE
S. pneumoniae D39 [2] = test: Minimum bactericidal concentration (MBC); assay type: cell-based; conditions: Streptococcus pneumoniae, 99.9% colony count reduction, read-out: MBC
S. aureus Xen29 = test: Minimum bactericidal concentration (MBC); assay type: cell-based; conditions: Staphylococcus aureus, 99.9% colony count reduction
Protocol: The tray was covered with Breathe-Easy sealing membrane (Z380059, Sigma-Aldrich) and incubated for 16 h overnight at 35°C in an EnSpire Multimode Plate Reader 2300 (PerkinElmer), with data collected every 20 min and 2 sec agitation at 60 rpm between data (A600 nm) acquisitions. The experiment was repeated using the luminescent D39LUX strain on a Cytation 5 Cell Imaging Multi-Mode Reader (BioTek) using IsoplateTM-96 F tray PerkinElmer, 6005020). Kill kinetic assays on S. aureus Xen29 was carried out essentially as described for MIC determination on Cytation 5 Cell Imaging Multi-Mode Reader.
In order to determine the MBC of each compound against S. pneumoniae D39 or S. aureus Xen29, 10 μl aliquots from each duplicate well from the MIC assays (starting from the MIC for each compound) was inoculated onto a HBA plate and incubated at 37°C (+ 5% CO2 for S. pneumoniae D39). Plates were examined at 24 and 48 h and the MBC was recorded as the lowest concentration of each test compound at which a 99.9% colony count reduction was observed on the plate.

S. pneumoniae D39 [3] = test: Membrane potential, DiOC2(3) fluorescence; assay type: cell-based, Streptococcus pneumoniae; conditions: 16 μg/ml, pre-incubated 5 min; versus untreated and ampicillin
Protocol: (§1) To further examine the mechanism underlying the perturbation of the cell membrane of S. pneumoniae or S. aureus by the NCL compounds, the membrane potential of the cells was measured by fluorescence spectrometry using (DiOC2(3), essentially as described previously. Briefly, […] cells from an overnight HBA plate were grown in Todd-Hewitt broth supplemented with 1% yeast extract (THY) at 37°C, 5% CO2 until A600 nm = 0.5. […] The cuvette was then placed in a LS 55 Fluorescence Spectrometer (PerkinElmer) set at Ex. 488 nm/Em. 620 nm, with excitation and emission slit widths at 5 nm and 7 nm, respectively). […] All assays were performed at least twice.

S. aureus ATCC49775 = test: Membrane potential, DiOC2(3) fluorescence; assay type: cell-based, Staphylococcus aureus; conditions: 16 μg/ml, pre-incubated 5 min; versus untreated and ampicillin
Protocol: as §1

[4] = LogD by gradient HPLC chromatographic method; assay type: physicochemical; conditions: pH 7.4
[5] = Kinetic solubility by nephelometry; assay type: physicochemical; conditions: kinetic from dmso stock
human red blood cells = test: Haemolysis assay; assay type: cell-based; conditions: 1 h, 37°C; highest concentration used 128 μg/ml
Protocol: This was performed using fresh donor human red blood cells (RBCs), essentially as described previously. Fresh RBCs were washed in PBS three times at 500 × g for 5 min, and then resuspended 1% (w/v) in PBS. […] Thereafter, 198 μL of the 1% RBC solution was added into each well, and the mixture incubated for 1 h at 37°C, with shaking at 100 rpm. Quadruplicate wells containing either 1% Triton X100, or PBS only, served as controls. After incubation, the trays were centrifuged at 1,000 × g for 3 min and 100 μl of supernatant from each well transferred into a new 96-well tray. Absorbance was measured at A450 nm on a Multiskan Ascent 354 Spectrophotometer (Labsystems) and plotted against each dilution. Haemolytic titer was determined as the reciprocal of the dilution at which 50% of erythrocytes were lysed at A450 nm. The experiment was performed twice.

Caco-2 = test: In vitro cytotoxicity, WST-1; assay type: cell-based; conditions: Homo sapiens, 24 h exposure, read-out: IC50 values ± SEM
From the text: (§2) In order to ensure minimal off target mammalian cell cytotoxicity, we assayed NCL812, NCL195 and NCL219 for in vitro cytotoxicity using a panel of adherent mammalian cell lines: Caco-2 (human colorectal adenocarcinoma cell line), HEL 299 (non-cancerous human lung fibroblast cell line), Hep G2 (human hepatocellular carcinoma cell line), MDBK (normal bovine kidney cell line) and MCF7 (human mammary gland adenocarcinoma cell line). Cell lines were maintained in Dulbecco’s Modified Eagle’s Medium (DMEM; […] After 24 h incubation, media was removed, washed once with medium without antibiotics and fresh medium supplemented with 10% (vol/vol) FBS was added. […] Following exposure for 24 h, WST-1 reagent was added to each well at a final concentration of 10%. […] The IC50 value for each compound against each cell line was determined via non-linear regression (three parameters) using GraphPad Prism v6 software. The robustness of assays was confirmed with selected cell lines (Hep G2 and MDBK) seeded onto a 96–well Microwell Nunclon Delta Surface plate (Thermo Scientific Nunc; Cat No: 136101) at 5 × 10^4 cells per well.

HEL 299 = test: In vitro cytotoxicity, WST-1; assay type: cell-based; conditions: Homo sapiens, 24 h exposure, read-out: IC50 values ± SEM
From the text: as §2

Hep G2 = test: In vitro cytotoxicity, WST-1; assay type: cell-based; conditions: Homo sapiens, HepG2; 24 h exposure; read-out: IC50 values ± SEM
From the text: as §2

MCF7 = test: In vitro cytotoxicity, WST-1; assay type: cell-based; conditions: Homo sapiens, 24 h exposure, read-out: IC50 values ± SEM
From the text: as §2

MDBK = test: In vitro cytotoxicity, WST-1; assay type: cell-based, bovine; conditions: Bos taurus, 24 h exposure, read-out: IC50 values ± SEM
From the text: as §2

[6] = S3 Table isolates, absence of FBS

Q: Which “Fold increase of MIC range in the presence of 10% FBS” value ([1]; 10% FBS versus no FBS) does the source give for `Cc1ccc(/C=N/Nc2cc(N/N=C/c3ccc(C)cc3)nc(N)n2)cc1` [NCL195, 4,6-bis(2-((E)-4-methylbenzylidene)hydrazinyl)pyrimidin-2-amine] here?
A: 4 fold

Q: And the MIC range ([1]; 20 isolates)?
A: 2 to 4 µg/mL

Q: And the MIC50 ([1]; S3 Table isolates, 10% FBS)?
A: 16 µg/mL (≈ 44.5 µM)

Q: And the MIC90 ([1]; S3 Table isolates, 10% FBS)?
A: 32 µg/mL (≈ 89 µM)

Q: What about the MIC50 [1, 6] of the same compound?
A: 2 µg/mL (≈ 5.56 µM)

Q: And the MIC90 [1, 6]?
A: 4 µg/mL (≈ 11.1 µM)

Q: What about the MIC ([1]; VRE 1 (49 FR), 10% FBS) of the same compound?
A: 16 µg/mL (≈ 44.5 µM)

Q: And the MIC ([1]; VRE 1 (49 FR), absence of FBS)?
A: 4 µg/mL (≈ 11.1 µM)

Q: What about the MIC ([1]; VRE 2 (53 FR), 10% FBS) of the same compound?
A: 16 µg/mL (≈ 44.5 µM)

Q: What about the MIC ([1]; VRE 2 (53 FR), absence of FBS) of the same compound?
A: 2 µg/mL (≈ 5.56 µM)

Q: And the MIC ([1]; VRE 3 (55 FR), 10% FBS)?
A: 16 µg/mL (≈ 44.5 µM)

Q: What about the MIC ([1]; VRE 3 (55 FR), absence of FBS) of the same compound?
A: 2 µg/mL (≈ 5.56 µM)

Q: What about the MIC ([1]; VRE 4 (57 FR), 10% FBS) of the same compound?
A: 16 µg/mL (≈ 44.5 µM)

Q: What about the MIC ([1]; VRE 4 (57 FR), absence of FBS) of the same compound?
A: 2 µg/mL (≈ 5.56 µM)

Q: And the MIC ([1]; VRE5 (58 FR), 10% FBS)?
A: 32 µg/mL (≈ 89 µM)

Q: And the MIC ([1]; VRE5 (58 FR), absence of FBS)?
A: 4 µg/mL (≈ 11.1 µM)

Q: And the MIC ([1]; VRE 6 (59 FR), 10% FBS)?
A: 16 µg/mL (≈ 44.5 µM)

Q: And the MIC ([1]; VRE 6 (59 FR), absence of FBS)?
A: 4 µg/mL (≈ 11.1 µM)

Q: And the MIC ([1]; VRE 7 (270 G), 10% FBS)?
A: 32 µg/mL (≈ 89 µM)

Q: And the MIC ([1]; VRE 7 (270 G), absence of FBS)?
A: 4 µg/mL (≈ 11.1 µM)

Q: What about the MIC ([1]; VRE 8 (277 G), 10% FBS) of the same compound?
A: 32 µg/mL (≈ 89 µM)

Q: And the MIC ([1]; VRE 8 (277 G), absence of FBS)?
A: 4 µg/mL (≈ 11.1 µM)

Q: What about the MIC ([1]; VRE 9 (61 FR), 10% FBS) of the same compound?
A: 16 µg/mL (≈ 44.5 µM)

Q: And the MIC ([1]; VRE 9 (61 FR), absence of FBS)?
A: 4 µg/mL (≈ 11.1 µM)

Q: And the MIC ([1]; VRE 10 (62 FR), 10% FBS)?
A: 16 µg/mL (≈ 44.5 µM)

Q: What about the MIC ([1]; VRE 10 (62 FR), absence of FBS) of the same compound?
A: 4 µg/mL (≈ 11.1 µM)

Q: And the MIC ([1]; VRE 11 (284 G), 10% FBS)?
A: 16 µg/mL (≈ 44.5 µM)

Q: And the MIC ([1]; VRE 11 (284 G), absence of FBS)?
A: 4 µg/mL (≈ 11.1 µM)

Q: And the MIC ([1]; VRE 12 (290 G), 10% FBS)?
A: 16 µg/mL (≈ 44.5 µM)

Q: What about the MIC ([1]; VRE 12 (290 G), absence of FBS) of the same compound?
A: 2 µg/mL (≈ 5.56 µM)

Q: And the MIC ([1]; VRE 13 (251 G), 10% FBS)?
A: 16 µg/mL (≈ 44.5 µM)

Q: What about the MIC ([1]; VRE 13 (251 G), absence of FBS) of the same compound?
A: 2 µg/mL (≈ 5.56 µM)

Q: And the MIC ([1]; VRE 14 (252 G), 10% FBS)?
A: 32 µg/mL (≈ 89 µM)

Q: And the MIC ([1]; VRE 14 (252 G), absence of FBS)?
A: 2 µg/mL (≈ 5.56 µM)

Q: And the MIC ([1]; VRE 15 (63 FR), 10% FBS)?
A: 16 µg/mL (≈ 44.5 µM)

Q: What about the MIC ([1]; VRE 15 (63 FR), absence of FBS) of the same compound?
A: 2 µg/mL (≈ 5.56 µM)

Q: And the MIC ([1]; VRE 16 (60 FR), 10% FBS)?
A: 16 µg/mL (≈ 44.5 µM)

Q: And the MIC ([1]; VRE 16 (60 FR), absence of FBS)?
A: 2 µg/mL (≈ 5.56 µM)

Q: And the MIC ([1]; VRE 17 (45 FR), 10% FBS)?
A: 32 µg/mL (≈ 89 µM)

Q: And the MIC ([1]; VRE 17 (45 FR), absence of FBS)?
A: 2 µg/mL (≈ 5.56 µM)

Q: And the MIC ([1]; VRE 18 (69 W), 10% FBS)?
A: 16 µg/mL (≈ 44.5 µM)

Q: What about the MIC ([1]; VRE 18 (69 W), absence of FBS) of the same compound?
A: 2 µg/mL (≈ 5.56 µM)

Q: What about the MIC ([1]; VRE 19 (70 W), 10% FBS) of the same compound?
A: 16 µg/mL (≈ 44.5 µM)

Q: And the MIC ([1]; VRE 19 (70 W), absence of FBS)?
A: 2 µg/mL (≈ 5.56 µM)

Q: And the MIC ([1]; VRE 20 (78 W), 10% FBS)?
A: 32 µg/mL (≈ 89 µM)

Q: And the MIC ([1]; VRE 20 (78 W), absence of FBS)?
A: 4 µg/mL (≈ 11.1 µM)

Q: What about the MIC range ([1]; S3 Table isolates, 10% FBS) of the same compound?
A: 16 to 32 µg/mL

Q: And the MIC range [1, 6]?
A: 2 to 4 µg/mL

Q: What about the MBC (S. pneumoniae D39 [2]) of the same compound?
A: 8 µg/mL (≈ 22.3 µM)

Q: And the MBC (S. aureus Xen29)?
A: 2 µg/mL (≈ 5.56 µM)

Q: What about the “Effect on generated membrane potential” value (S. pneumoniae D39 [3]) of the same compound?
A: large reduction in the magnitude of the generated membrane potential

Q: And the “Effect on generated membrane potential” value (S. aureus ATCC49775)?
A: large reduction in the magnitude of the generated membrane potential

Q: What about the chromatographic logD [4] of the same compound?
A: 4.5

Q: What about the solubility ([5]; pH 2.0) of the same compound?
A: 3.1 to 6.3 µg/mL (≈ 8.62 to 17.5 µM)

Q: What about the solubility ([5]; pH 6.5) of the same compound?
A: < 1.6 µg/mL

Q: And the “50% haemolysis titre (HC50)” value (human red blood cells)?
A: > 128 µg/mL

Q: What about the IC50 (Caco-2) of the same compound?
A: 12.8 ± 0.1 µg/mL (≈ 35.6 µM)

Q: And the IC50 (HEL 299)?
A: 10.9 ± 0.2 µg/mL (≈ 30.3 µM)

Q: And the IC50 (Hep G2)?
A: 12 ± 0.1 µg/mL (≈ 33.4 µM)

Q: And the IC50 (MCF7)?
A: 40.1 ± 0.2 µg/mL (≈ 112 µM)

Q: And the IC50 (MDBK)?
A: 17.3 ± 0.2 µg/mL (≈ 48.1 µM)

Source: paper PMC5584945, “Evaluation of robenidine analog NCL195 as a novel broad-spectrum antibacterial agent” (PLoS ONE, 2017)
